Data on five molecules can be found in patent EP0598011B1, “ECDYSTEROID DEPENDENT REGULATION OF GENES IN MAMMALIAN CELLS” (GENENTECH, INC., priority 1991, dated 1993).

One data set has as its target T1, GGEc (Drosophila melanogaster, UniProt P34021).
T1 construct: expressed in transfected cells; host or cells: 293 cells
T1 sequence (P34021 329-878): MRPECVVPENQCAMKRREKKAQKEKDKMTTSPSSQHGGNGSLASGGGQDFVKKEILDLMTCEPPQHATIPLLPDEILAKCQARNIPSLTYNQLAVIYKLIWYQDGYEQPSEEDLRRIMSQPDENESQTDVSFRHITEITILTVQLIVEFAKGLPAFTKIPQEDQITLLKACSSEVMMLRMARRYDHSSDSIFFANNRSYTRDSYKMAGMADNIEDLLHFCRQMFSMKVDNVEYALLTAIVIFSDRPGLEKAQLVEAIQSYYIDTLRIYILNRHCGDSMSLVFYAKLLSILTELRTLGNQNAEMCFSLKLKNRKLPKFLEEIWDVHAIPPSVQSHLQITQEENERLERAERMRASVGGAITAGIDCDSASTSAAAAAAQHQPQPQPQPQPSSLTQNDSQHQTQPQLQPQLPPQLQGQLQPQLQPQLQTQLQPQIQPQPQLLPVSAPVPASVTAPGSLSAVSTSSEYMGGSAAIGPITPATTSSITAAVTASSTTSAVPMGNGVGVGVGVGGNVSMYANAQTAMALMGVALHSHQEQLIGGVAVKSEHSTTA
In words: Induction of GRE reporter G4M-77CO by chimeric receptor GGEc in 293 cells. It counts as cell-based. The note with it: GRE reporter G4M-77CO. The source says: I choose to determine if the ligand-binding domain of DHR23a could be used to regulate the DNA-binding and transactivation domains of the mammalian glucocorticoid receptor for the following reasons. First, in contrast to DHR23α, high affinity DNA-binding sites for the GR have been identified (M. Beato, Cell 56, 335 [1989]) and reporter genes containing these sites are very strongly regulated. Thus, the sensitivity of our assays could be increased. Secondly, these chimeric receptors could be utilized to selectively regulate endogenous genes in mammalian cells in response to ecdysteroids. I constructed a chimeric gene, GGEc, in which the sequences encoding the ligand-binding domain of the GR were replaced with that of DHR23α (Fig. 4A). […] However, expression of the GRE-containing reporter gene was induced more than 700 fold by GGEc in muristerone-treated cells.

The next data set has as its target T2, DHR23α (Drosophila melanogaster, UniProt P34021).
T2 construct: To isolate the full-length DHR23α clones; expressed in transfected cells; host or cells: human 293 cells
T2 sequence (P34021 1-878): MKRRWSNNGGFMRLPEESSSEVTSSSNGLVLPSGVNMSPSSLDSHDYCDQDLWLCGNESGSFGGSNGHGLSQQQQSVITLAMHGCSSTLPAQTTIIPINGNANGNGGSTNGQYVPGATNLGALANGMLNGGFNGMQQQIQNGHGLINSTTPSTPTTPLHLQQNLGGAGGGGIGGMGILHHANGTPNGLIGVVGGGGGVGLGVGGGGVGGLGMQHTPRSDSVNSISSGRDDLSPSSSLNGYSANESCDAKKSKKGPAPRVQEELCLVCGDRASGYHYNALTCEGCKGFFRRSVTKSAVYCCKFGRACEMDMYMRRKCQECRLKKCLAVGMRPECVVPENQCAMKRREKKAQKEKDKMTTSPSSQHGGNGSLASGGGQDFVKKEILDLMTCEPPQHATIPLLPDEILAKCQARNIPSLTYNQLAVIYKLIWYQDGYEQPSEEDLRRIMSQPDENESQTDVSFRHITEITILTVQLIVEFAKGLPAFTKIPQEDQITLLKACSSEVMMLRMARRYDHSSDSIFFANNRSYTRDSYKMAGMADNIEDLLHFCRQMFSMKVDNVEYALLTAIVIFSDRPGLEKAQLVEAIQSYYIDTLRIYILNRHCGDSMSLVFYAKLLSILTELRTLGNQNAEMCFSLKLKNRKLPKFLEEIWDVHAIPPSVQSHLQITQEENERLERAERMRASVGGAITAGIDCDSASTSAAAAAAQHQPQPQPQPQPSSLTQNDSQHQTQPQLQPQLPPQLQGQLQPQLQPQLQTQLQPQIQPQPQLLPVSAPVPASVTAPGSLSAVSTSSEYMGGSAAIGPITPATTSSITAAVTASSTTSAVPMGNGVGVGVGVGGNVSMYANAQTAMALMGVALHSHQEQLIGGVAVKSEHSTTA
T2 sequence (P19793 1-462 partner): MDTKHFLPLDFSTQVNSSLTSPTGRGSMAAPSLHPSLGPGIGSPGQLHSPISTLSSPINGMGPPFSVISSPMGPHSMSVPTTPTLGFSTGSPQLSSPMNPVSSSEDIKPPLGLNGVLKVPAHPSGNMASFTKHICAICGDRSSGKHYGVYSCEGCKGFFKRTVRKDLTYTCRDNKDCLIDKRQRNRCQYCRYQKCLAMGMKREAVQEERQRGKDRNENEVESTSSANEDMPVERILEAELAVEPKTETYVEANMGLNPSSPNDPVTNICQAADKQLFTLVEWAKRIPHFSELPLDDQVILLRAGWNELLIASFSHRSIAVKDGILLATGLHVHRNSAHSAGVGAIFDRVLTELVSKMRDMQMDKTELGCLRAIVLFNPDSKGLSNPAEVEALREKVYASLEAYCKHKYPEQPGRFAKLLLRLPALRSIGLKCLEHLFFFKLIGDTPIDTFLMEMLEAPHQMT
Put plainly: DHR23α transactivation of EcRE (Ec4M-77CO) CAT reporter in transfected human 293 cells. It counts as cell-based. The note with it: pRSV.DHR23α + pEc4M-77CO (EcRE) CAT reporter, ligand 1 µM, 48 hrs. The protocol:
Figure. 2. […] Human 293 cells were cotransfected with 2.5 µg of the expression plasmid pRSV.DHR23α or the parental expression plasmid pRSV (Control) and 0.5 µgs of the reporter plasmid pEc4M-77CO (EcRE) or pG4M-77CO (GRE). As a control for transfection efficiency, 0.5 µgs of the control plasmid pRSV.hGH was included in the transfection mixture. After transfection, cells were treated without (-) or with alpha-ecdysone (alpha), 20-OH ecdysone (20-OH), polypodine B (ppB), ponasterone A (ponA) or muristeroine A (murA). CAT extracts were harvested 48 hrs after transfection and assayed. The values were normalized to the expression of hGH and the average values of three independent experiments are shown. The "fold induction" represents the level of expression of the reporter gene in cells incubated with hormone divided by the expression of that reporter gene in extracts from cells incubated in the absence of added ligand.
I determined whether DHR23α could function in mammalian cells treated with ecdysteroids to enhance the transcription of a reporter gene containing EcREs linked to the murine mammary tumor virus (MTV) promoter and chloramphenicol acetyltransferase (CAT) gene. Human 293 cells were cotransfected with an RSV-based expression vector that encodes DHR23a and the reporter gene Ec4M-77CO that contains 4 copies of an ecdysone response element (EcRE) from the Drosophila HSP27 promoter (G. Riddihough and H. R. B. Pelham, EMBO J. 6, 3729 [1987]) linked to an MTV promoter-CAT construct.
Human 293 cells were cotransfected with 2.5 µg of the expression plasmid pRSV.DHR23α or the parental expression plasmid pRSV (Control) and 0.5 µgs of the reporter plasmid pEc4M-77CO (EcRE) or pG4M-77CO (GRE). As a control for transfection efficiency, 0.5 µgs of the control plasmid pRSV.hGH was included in the transfection mixture. After transfection, cells were treated without (-) or with alpha-ecdysone (alpha), 20-OH ecdysone (20-OH), polypodine B (ppB), ponasterone A (ponA) or muristeroine A (murA). All candidate ligands were added at a concentration of 1 µM. CAT extracts were harvested 48 hrs after transfection, and assays were performed as described (D. R. Cavener, Nucl. Acids Res. 15, 1353-1361 [1987]). The values were normalized to the expression of hGH and the average values of three independent experiments are shown in Figure 2. The "fold induction" represents the level of expression of the reporter gene in cells incubated with hormone divided by the expression of that reporter gene in extracts from cells incubated in the absence of added ligand.
Cells were transfected with the DHR23α expression vector and Ec4M-77CO reporter gene and treated without (-) or with the following hormones (1 µM): muristerone A (mur A) dexamethasone (Dex) 17β-estradiol (E2), aldosterone (Aldo), corticosterone (Cort) hydroxycorticosterone (OH-Cort) thyroid hormone (T3), promegestone (Promeg) or 1,25-dihydroxy vitamin D3 (VD3). Reporter gene activity was determined as described above for Figure 2.

The test system of another data set is drosophila cell lines. As to conditions: cited from earlier work.
Another data set concerns the target T3, GGG (Rattus norvegicus, UniProt P06536).
T3 sequence (P06536 1-795): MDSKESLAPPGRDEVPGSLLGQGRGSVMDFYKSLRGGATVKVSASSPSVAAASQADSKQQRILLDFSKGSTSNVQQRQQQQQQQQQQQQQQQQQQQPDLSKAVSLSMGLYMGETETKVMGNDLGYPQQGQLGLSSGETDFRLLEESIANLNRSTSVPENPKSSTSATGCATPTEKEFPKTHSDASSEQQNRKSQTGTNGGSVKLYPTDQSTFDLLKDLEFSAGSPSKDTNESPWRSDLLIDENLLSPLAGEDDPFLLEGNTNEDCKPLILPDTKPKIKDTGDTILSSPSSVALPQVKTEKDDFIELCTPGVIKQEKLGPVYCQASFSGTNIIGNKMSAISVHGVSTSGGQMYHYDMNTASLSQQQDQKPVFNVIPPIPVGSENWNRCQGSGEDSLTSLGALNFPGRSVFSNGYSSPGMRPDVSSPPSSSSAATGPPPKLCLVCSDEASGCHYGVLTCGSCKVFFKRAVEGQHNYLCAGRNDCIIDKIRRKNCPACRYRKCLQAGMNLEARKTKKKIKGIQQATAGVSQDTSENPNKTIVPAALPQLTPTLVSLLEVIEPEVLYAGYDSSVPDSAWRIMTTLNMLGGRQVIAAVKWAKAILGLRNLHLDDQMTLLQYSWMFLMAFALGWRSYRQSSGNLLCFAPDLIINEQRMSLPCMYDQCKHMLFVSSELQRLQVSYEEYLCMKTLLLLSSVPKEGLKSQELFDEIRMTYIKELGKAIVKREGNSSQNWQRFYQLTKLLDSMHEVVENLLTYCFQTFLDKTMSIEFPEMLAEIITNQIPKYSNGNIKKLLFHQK
Put plainly: Induction of GRE reporter G4M-77CO by GGG (glucocorticoid receptor) in 293 cells. The note with it: normalized to hGH, SD in parentheses, 2880 min.

As to `CC(C)(O)CC[C@@H](O)[C@](C)(O)[C@H]1CC[C@@]2(O)C3=CC(=O)[C@@H]4C[C@@H](O)[C@@H](O)C[C@]4(C)[C@H]3CC[C@]12C` [20-OH ecdysone], the “relative efficacies of ecdysteroids as agonists for the chimeric receptor” value (from here on “relative efficacies of ecdysteroids”) at GGEc is recorded as “neither α-ecdysone, 20-OH ecdysone or polypodine B acted as agonists”. Further, the “agonist for DHR23α in mammalian cells (expression of the reporter gene)” value (“agonist for DHR23α in mammalian cells” for short) on DHR23α was “Neither α-ecdysone, 20-OH ecdysone, nor polypodine B acted as agonists”; at DHR23α (1 µM), “inactive”. Further, the “agonist activity in drosophila cell lines” value with drosophila cell lines is recorded as “agonists”.

`C[C@@H]1C[C@H]2[C@@H]3CCC4=CC(=O)C=C[C@]4(C)[C@@]3(F)[C@@H](O)C[C@]2(C)[C@@]1(O)C(=O)CO` [dexamethasone]: on GGG, the fold induction stood at 347 fold.

Regarding `CC(C)(O)CC[C@@H](O)[C@](C)(O)[C@H]1CC[C@@]2(O)C3=CC(=O)[C@]4(O)C[C@@H](O)[C@@H](O)C[C@]4(C)[C@H]3CC[C@]12C` [polypodine B], the “relative efficacies of ecdysteroids” value at GGEc is listed as “neither α-ecdysone, 20-OH ecdysone or polypodine B acted as agonists”. The “agonist for DHR23α in mammalian cells” value on DHR23α is “Neither α-ecdysone, 20-OH ecdysone, nor polypodine B acted as agonists”. Besides, the “agonist activity in drosophila cell lines” value in the data set on drosophila cell lines is on record as “agonists”.

For the molecule `CC(C)CC[C@@H](O)[C@](C)(O)[C@H]1CC[C@@]2(O)C3=CC(=O)[C@@H]4C[C@@H](O)[C@@H](O)C[C@]4(C)[C@H]3CC[C@]12C` [ponasterone A], the “relative efficacies of ecdysteroids” value on GGEc is listed as “weak”. Also, the “agonist for DHR23α in mammalian cells” value on DHR23α was “weak agonist”.

Take `C[C@H]([C@H](O)CCC(C)(C)O)[C@H]1CC[C@@]2(O)C3=CC(=O)[C@@H]4C[C@@H](O)[C@@H](O)C[C@]4(C)[C@H]3CC[C@]12C` [α-ecdysone]: the “relative efficacies of ecdysteroids” value on GGEc is recorded as “neither α-ecdysone, 20-OH ecdysone or polypodine B acted as agonists”. Moreover, the “agonist for DHR23α in mammalian cells” value on DHR23α was “Neither α-ecdysone, 20-OH ecdysone, nor polypodine B acted as agonists”.

The fold induction is the signal under treatment as a multiple of the control signal.
